Source: patent publication US20240180485A1, “METHOD AND DEVICE FOR INDUCING HYPOMETABOLIC STATE IN SUBJECT WITH DISEASE” (UNIVERSITY OF TSUKUBA, priority 2021, published 2024)

How the values were obtained:
wild-type mice = assay: Metabolic state induced by IP CHA in wild-type mice
Experimental: The adenosinea receptor agonist CHA (N6-cyclohexyladenosine, Sigma-Aldrich, C9901) was dissolved in physiological saline at a concentration of 250 μg/mL, and the resulting solution was intraperitoneally administered to each mouse at a dose of 2.5 mg/kg.
In addition, the metabolic state induced by systemic delivery of the adenosine A1AR agonist (6)N-cyclohexyladenosine (CHA), which is used to induce a hypothermic state, was also investigated^19.

[1] = system: hM3Dq-mCherry-expressing neurons; assay: Current-clamp recording of hypothalamus slices with bath-applied CNO; type: cell-based, mouse; settings: bath application; CNO 1 μM; 30° C.
Experimental: The mice were decapitated under deep anesthesia using isoflurane (Pfizer). The brains were extracted and cooled in an ice-cold cutting solution containing the following (mM): 125 mM choline chloride, 25 mM NaHCO3, 10 mM D(+)-glucose, 7 mM MgCl2, 2.5 mM KCl, 1.25 mM NaH2PO4, and 0.5 mM CaCl2 bubbled with O2 (95%) and CO2 (5%). Horizontal brain slices (250 μm in thickness) including the hypothalamus were prepared by using a vibratome (VT1200S, Leica) and were maintained at room temperature for 1 hour in artificial CSF (ACSF) containing the following (mM): 125 mM NaCl, 26 mM NaHCO3, 10 mM D(+)-glucose, 2.5 mM KCl, 2 mM CaCl2), and 1 mM MgSO4 bubbled with O2 (95%) and CO2 (5%). The electrodes (5 to 8 MΩ) were filled with an internal solution containing the following (mM): 125 mM K-gluconate, 10 mM HEPES, 10 mM phosphocreatine, 0.05 mM tolbutamide, 4 mM NaCl, 4 mM ATP, 2 mM MgCl2, 0.4 mM GTP, and 0.2 mM EGTA, pH 7.3, adjusted with KOH). Firing of hM3Dq-mCherry-expressing neurons was recorded in current-clamp mode at a temperature of 30° C. CNO (1 μM) was bath-applied, and the effect was investigated. The membrane potential and data acquisition were controlled by using a combination of a MultiClamp 700B amplifier, a Digidata 1440A A/D converter, and Clampex 10.3 software (Molecular Devices). […]

Q-hM3D mice [2] = settings: mouse, in vivo
Text: In order to evaluate the thermoregulatory system under QIH and normal conditions, the heat loss and the heat production of the animals were described by a hierarchical multilayer model (FIGS. 3c to 3k, code folder QIH_GTRH). Three parameters of G, TR, and H under two metabolic conditions, that is, normal and QIH, were estimated from a metabolically stable state of the animals at various TAs. […] In brief, a linear model consisting of the controllable parameter TA and the observable parameters TB and VO2 was fitted to the experimental results for both TB and VO2 by using TA as a predictor having normally distributed noise. Next, G, TR, and H were estimated by using the posterior distributions of the slope and the intercept coefficient of each model. In this analysis, the prior probability density function of the standard deviation of noise was a standard half-normal distribution, and the other parameters used a positive region of a uniform distribution except for the intercept coefficient of TB, which used a uniform distribution due to negative values.
In order to evaluate this, feature analysis of the thermoregulatory system of mice during QIH was carried out. […] Q-hM3D mice were prepared, and TB and VO2 were recorded during QIH at various TAs (8, 12, 16, 20, 24, 28, and 32° C.) (FIG. 3a). […]

[3] = system: Qrfp-iCre; Rosa26^dreaddm3 mice; assay: Thermographic surface body temperature and motor activity after CNO in Qrfp-iCre; Rosa26^dreaddm3 mice; type: in vivo, mouse
Text: For thermographic analysis, the mice were placed in an experimental cage (25×15×10 cm) and monitored by using an infrared thermal imaging camera (InfReC R500 EX; NIPPON AVIONICS) placed 30 cm above the cage floor. In order to clearly detect the surface temperature, the dorsal hair was removed by using hair clippers one day before the start of the experiment. Thermograms of DREADD and optogenetic experiments were collected at 0.5 Hz and 1 Hz, respectively, and analyzed by using the InfReC Analyzer NS9500 Professional software (NIPPON AVIONICS). The highest temperature in one frame was used as TS of the animal (FIG. 1d).
The pyroglutamylated RFamide peptide (QRFP), a hypothalamic neuropeptide, was originally discovered through a bioinformatics approach aimed at the discovery of a new RFamide peptide^9,10. The Qrfp peptide was also identified and purified from the rat brain as an endogenous ligand for the orphan G-protein-coupled receptor hGPR103^11. The prepro-Qrfp mRNA is localized only in the hypothalamus and is distributed in the periventricular nucleus (Pe), the lateral hypothalamus (LHA), and the tuber cinereum (TC) 11. Orfp has previously been implicated in food intake, sympathetic regulation, and anxiety^11,12. The inventors prepared mice (Qrfp-iCre mice) having codon-improved Cre recombinase (iCre) knocked-in into the Qrfp gene. In order to obtain mice (Qrfp-iCre; Rosa26^dreaddm3 mice) in which hM3Dq-mCherry was expressed only in iCre-expressing neurons, the inventors crossbred […] with Rosa26^dreadm3 mice having an upstream floxed transcription arrest element inserted at the Rosa26 gene locus. […] The decrease in Ts started about 5 minutes after CNO administration and lasted for approximately 12 hours. After that, the mice spontaneously recovered from the hypothermic state without external rewarming.

[4] = system: AVPe/MPA including Q-neurons; settings: AAV10-CaMKIIα-hM3Dq-mCherry injected into AVPe/MPA; cited from earlier work
Q-hM3D mice [5] = assay: Body temperature, oxygen consumption, heart rate and respiration after CNO IP in Q-hM3D mice; type: in vivo, mouse
[6] = system: neurons in AVPe, MPA, and Pe; assay: Fos immunostaining after CNO IP in Q-hM3D mice; type: in vivo, mouse; settings: 90 minutes after CNO IP
Experimental: Each mouse was deeply anesthetized with isoflurane, transcardially perfused with 10% sucrose in water, and subsequently perfused with ice-cooled 4% paraformaldehyde (4% PFA) in a 0.1 M phosphate buffer having a pH of 7.4, and the brain was removed. The brain was left in 4% PFA overnight at 4° ° C., then fixed, incubated overnight at 4° C. in 30% sucrose in a 0.1 M phosphate buffered saline (PBS) having a pH of 7.4, immersed in a Tissuue-Tek O.C.T. compound (Sakura) in a cryomold, and frozen at −80° C. until sectioned. The brain was sliced coronally by using a cryostat (CM1860, Leica) every 50 μm into four equal series, collected in a 6-well plate filled with ice-cooled PBS, and washed three times with PBS at room temperature (RT). Unless otherwise specified, the following incubation step was carried out with gently shaking on an orbital shaker. Brain sections were incubated for 1 hour at room temperature in 1% Triton X-100 in PBS. […]
The primary antibodies used in the present study were rabbit anti-cFos (1:4000, ABE457, Millipore), goat anti-mCherry (1:15000, AB0040-200, SICGEN), rat anti-GFP (1:5000, 04404-84, NACALAI TESQUE), mouse anti-TH (1:1000, sc-25269, Santa Cruz Biotechnology), mouse anti-orexin A (1:200, sc-80263, Santa Cruz Biotechnology), and rabbit anti-MCH (1:2000, M8440, SIGMA). […] Brain regions were determined by using mouse brain maps from Paxinos and Franklin^36.

[7] = centrally administered; cited from earlier work
[8] = surface body temperature, thermographic camera

Compound: OC[C@H]1O[C@@H](n2cnc3c(NC4CCCCC4)ncnc32)[C@H](O)[C@@H]1O [CHA, N6-cyclohexyladenosine]
- TB and VO2 when TA was set to 12° C. (wild-type mice; IP 2.5 mg/kg, CHA-induced hypothermia): further decreased
- reaction to low TA (increase in VO2, posture, shivering) (wild-type mice; IP 2.5 mg/kg, TA 12° C.): did not react to a low TA
- induction of hypothermic/hypometabolic state (wild-type mice; IP injection 2.5 mg/kg): effectively induced a hypothermic/hypometabolic state

Compound: C[N+]1([O-])CCN(C2=Nc3cc(Cl)ccc3Nc3ccccc32)CC1 [CNO, clozapine N-oxide]
- excitation of mCherry-positive neurons [1]: strongly excited
- difference between the medians of TR, normal vs QIH (Q-hM3D mice [2]): 8.41 °C
- reduction in the median of H in QIH from the normal state (Q-hM3D mice [2]): 95.3%
- hypothermia accompanying the CNO-induced immobile state ([3]; FIG. 1b): remarkable and sustained hypothermia
- start of severe and sustained immobile state after injection ([3]; intraperitoneal (IP) injection): about 30 minutes
- duration of decrease in Ts [3, 8]: approximately 12 hours
- start of decrease in Ts after administration [3, 8]: about 5 minutes
- induction of QIH in rats [4]: induced QIH with hypothermia and hypometabolism
- induction of QIH (Q-hM3D mice [5]; CNO injection, before in situ hybridization): effectively induced QIH
- QIH after repeated injections in the same mice (Q-hM3D mice [5]; FIG. 1h): reproducible
- duration of very low TB state (below 30° C.) (Q-hM3D mice [5]; IP injection, FIG. 1d): ≥ 48 h
- duration of QIH with a TB of less than 30° C. (Q-hM3D mice [5]; TA=20° C., one dose 1 mg/kg): ≥ 48 h
- time for VO2 to fully return to normal (Q-hM3D mice [5]; TA=20° C., one dose 1 mg/kg): about 1 week
- hypothermia compared with Qrfp-iCre; Rosa26^dreaddm3 mice (Q-hM3D mice [5]; mouse, in vivo, ip): deeper, longer-lasting hypothermia
- O2 consumption rate (VO2) in the CNO-induced hypothermic state (Q-hM3D mice [5]; respiratory gas analysis, FIG. 1g): remarkable decrease
- action of CNO on TB with TeTxLC co-expression (Q-hM3D mice [5]; simultaneous injection of AAV2/9-hSyn-DIO-TeTxLC-eYFP and AAV10-EF1α-DIO-hM3Dq-mCherry): completely eliminated
- VO2 (Q-hM3D mice [5]; two hours after CNO injection, 3.60 before): 1.17 mL/g/h
- respiratory rate (Q-hM3D mice [5]; two hours after CNO injection, 333 before, tidal volume below detection limit): undetectable
- heart rate (Q-hM3D mice [5]; two hours after CNO injection, 758 two hours before, average of n=3): 215 beats/min
- in vivo excitation of neurons (anti-Fos and anti-mCherry) [6]: numerous mCherry and Fos double-positive neurons

Compound: pyroglutamylated RFamide peptide (QDEGSEATGFLPAAGEKTSGPLGNLAEELNGYSRKKGGFSFRF; QRF-amide; UniProt P83859 91-133, looked up) [Qrfp, hypothalamic neuropeptide, endogenous ligand for the GPR103 receptor]
- effect on sympathetic nerve outflow, heart rate and blood pressure [7]: increases sympathetic nerve outflow and increases the heart rate and the blood pressure
